Columns and labels:
[1] = system: Wnt pathway; test: Cellular assay for Wnt pathway activity (luciferase reporter cell based assay); conditions: 24 h, HEK293 luciferase reporter cell line (ER-DSH, TCF dependent promoter), induced with estrogen (1 μM), read-out: 7df3 IC50
[2] = CLint (intrinsic clearance) assay, microsomal incubation; assay type: in vitro ADME, Human; conditions: NADPH, 37° C., up to 30 min; for microsomal CLint at 0.8 μM: human, liver microsomes, pH 7.4, human liver microsomes 0.5 mg/mL protein; for Human Clint: human liver microsomes 0.5 mg/mL protein
Description: 2. CLint (Intrinsic Clearance) Assay
A Tecan Genesis workstation (RWS ASY 150/8) was used to perform the microsomal incubations. Analysis was carried out using a Waters ACQUITY UPLC system coupled to an ABSciex API3000 mass spectrometer. Data analysis was performed using Assay Explorer (Symyx).
0.1 M potassium phosphate buffer pH 7.4 containing 1 mM MgCl2
15 mM NADPH in phosphate buffer
5.0 mg protein/mL liver microsomes in phosphate buffer
Each experiment consists of 12 test and 2 reference compounds. The reference compounds are incubated as a cocktail.
Dilution of test compounds was done in 2 steps from a 10 mM DMSO stock solution. First 4 μL stock solution was added to 196 μL of 20% DMSO in potassium phosphate buffer pH 7.4. In a second step 10 μL of the first dilution were added to […] potassium phosphate buffer and 100 μL internal standard solution to a final concentration of 0.8 μM. 100 μL of the final compound dilution were aliquoted into a 96 deep well plate. 12.5 μL liver microsomes were added to each well (0.5 mg/mL final protein concentration) and the samples preincubated for 5 min at 37° C. and 800 rpm agitation.
After the preincubation, 250 μL cold acetonitrile were added to the 0 min samples to prevent a reaction. Following this, 12.5 μL NADPH solution were added to all wells to start the incubation, with the exception of the 0 min and 30 min controls without cofactor, where the NADPH was substituted for phosphate buffer.
The incubations were stopped after 5, 10, 20 and 30 min by adding 250 μL cold acetonitrile to the individual wells.
The quenched samples were then centrifuged at 4000 g for 1 h at 4° C. 100 μL of the supernatant were transferred into 96 well plates for analysis.
The metabolic stability of each compound was determined by measurement of the change in LC-MS/MS peak area over time. Assay Explorer software was used to automatically calculate the slope k of the decline. The intrinsic clearance (CLint) of each compound was then calculated according to the formula: CLint(μL/min/mg protein)=k1000/protein concentration.
CLint is shown for each compound in Table 3 below.

For `CC1=NC(=O)C2(CCN(c3c(Cl)cncc3-c3ccc4c(cnn4C)c3)CC2)N1` [Example 19, 8-[3-Chloro-5-(1-methyl-1H-indazol-5-yl)-pyridin-4-yl]-2-methyl-1,3,8-triaza-spiro[4.5]dec-2-en-4-one], which IC50 [1] is on record?
The IC50 was 21 nM.

And the microsomal CLint at 0.8 μM [2]?
The microsomal CLint at 0.8 μM was less than 10 µL/min/mg.

What does the source list for `O=C1CCc2cc(-c3cncc(Cl)c3N3CCC4(CCNC4=O)CC3)cnc2N1` [Example 93, 6-[5-Chloro-4-(1-oxo-2,8-diaza-spiro[4.5]dec-8-yl)-pyridin-3-yl]-3,4-dihydro-1H-[1,8]naphthyridin-2-one]?
IC50 [1]: 34 nM; microsomal CLint at 0.8 μM [2]: 48 µL/min/mg

With `CCC1=NNC(=O)C12CCN(c1c(Cl)cncc1-c1ccc(-c3cnn(C)c3)cc1)CC2` [Example 54, 8-{3-Chloro-5-[4-(1-methyl-1H-pyrazol-4-yl)-phenyl]-pyridin-4-yl}-4-ethyl-2,3,8-triaza-spiro[4.5]dec-3-en-1-one] as the compound, how does the IC50 [1] read?
The IC50 was 0.92 nM.

What about the microsomal CLint at 0.8 μM [2] of the same compound?
The microsomal CLint at 0.8 μM was 82 µL/min/mg.

Which results are given for `CC(C)n1cc2cc(-c3cncc(Cl)c3N3CCC4(CC3)CNC(=O)O4)ccc2n1` [Example 94, 8-[3-Chloro-5-(2-isopropyl-2H-indazol-5-yl)-pyridin-4-yl]-1-oxa-3,8-diaza-spiro[4.5]decan-2-one]?
IC50 [1]: 28 nM; microsomal CLint at 0.8 μM [2]: < 10 µL/min/mg

With `Cn1ncc2ccc(-c3cncc(Cl)c3N3CCC4(CC3)CNC(=O)O4)cc21` [Example 10, 8-[3-Chloro-5-(1-methyl-1H-indazol-6-yl)-pyridin-4-yl]-1-oxa-3,8-diaza-spiro[4.5]decan-2-one] as the compound, how does the IC50 [1] read?
The IC50 was 28 nM.

And the microsomal CLint at 0.8 μM [2]?
Its microsomal CLint at 0.8 μM is 13 µL/min/mg.

With `O=C1NCC2(CCN(c3c(Cl)cncc3-c3ccc4c(c3)CS(=O)(=O)C4)CC2)O1` [Example 48, 8-[3-Chloro-5-(2,2-dioxo-2,3-dihydro-1H-2l6-benzo[c]thiophen-5-yl)-pyridin-4-yl]-1-oxa-3,8-diaza-spiro[4.5]decan-2-one] as the compound, how does the IC50 [1] read?
Its IC50 is 42 nM.

And the microsomal CLint at 0.8 μM [2]?
Its microsomal CLint at 0.8 μM is 23 µL/min/mg.

Which IC50 [1] does the source give for `CC(C)n1cc(-c2ccc(-c3cncc(Cl)c3N3CCC4(CCNC4=O)CC3)cc2)cn1` [Example 6, 8-{3-Chloro-5-[4-(1-isopropyl-1H-pyrazol-4-yl)-phenyl]-pyridin-4-yl}-2,8-diaza-spiro[4.5]decan-1-one] here?
Its IC50 is 6.2 nM.

And the microsomal CLint at 0.8 μM [2]?
Its microsomal CLint at 0.8 μM is 90 µL/min/mg.

Which IC50 [1] does the source give for `C#Cc1cncc(-c2ccc3c(c2)CS(=O)(=O)N3C)c1N1CCC2(CCNC2=O)CC1` [Example 81, 8-[3-Ethynyl-5-(1-methyl-2,2-dioxo-2,3-dihydro-1H-2l6-benzo[c]isothiazol-5-yl)-pyridin-4-yl]-2,8-diaza-spiro[4.5]decan-1-one] here?
The IC50 was 0.66 nM.

And the microsomal CLint at 0.8 μM [2]?
Its microsomal CLint at 0.8 μM is 66 µL/min/mg.

For `CC(C)n1cc(-c2ccc(-c3cncc(Cl)c3N3CCC4(CC3)CNC(=O)O4)cc2)cn1` [Example 36, 8-{3-Chloro-5-[4-(1-isopropyl-1H-pyrazol-4-yl)-phenyl]-pyridin-4-yl}-1-oxa-3,8-diaza-spiro[4.5]decan-2-one], which IC50 [1] is on record?
The IC50 was 22 nM.

What about the microsomal CLint at 0.8 μM [2] of the same compound?
Its microsomal CLint at 0.8 μM is 40 µL/min/mg.

For `CN1c2ccc(-c3cncc(Cl)c3N3CCC4(CC3)C[C@@H](C(F)(F)F)NC4=O)cc2CS1(=O)=O` [Example 42, (S)-8-[3-Chloro-5-(1-methyl-2,2-dioxo-2,3-dihydro-1H-2l6-benzo[c]isothiazol-5-yl)-pyridin-4-yl]-3-trifluoromethyl-2,8-diaza-spiro[4.5]decan-1-one], which IC50 [1] is on record?
The IC50 was 2.4 nM.

And the microsomal CLint at 0.8 μM [2]?
The microsomal CLint at 0.8 μM was 57 µL/min/mg.

Which results are given for `CN1C(=O)Cc2ccc(-c3cncc(Cl)c3N3CCC(N)(C(N)=O)CC3)cc21` [Example 73, 4-Amino-5′-chloro-3′-(1-methyl-2-oxo-2,3-dihydro-1H-indol-6-yl)-3,4,5,6-tetrahydro-2H-[1,4′]bipyridinyl-4-carboxylic acid amide]?
IC50 [1]: 12 nM; microsomal CLint at 0.8 μM [2]: 17 µL/min/mg

For `O=C1CC2(CCN(c3c(Cl)cncc3-c3ccc(N4CCOCC4)cc3)CC2)C(=O)N1` [Example 90, 8-[3-Chloro-5-(4-morpholin-4-yl-phenyl)-pyridin-4-yl]-2,8-diaza-spiro[4.5]decane-1,3-dione], which IC50 [1] is on record?
The IC50 was 8.8 nM.

And the microsomal CLint at 0.8 μM [2]?
The microsomal CLint at 0.8 μM was 66 µL/min/mg.

Which results are given for `CN1c2ccc(-c3cncc(Cl)c3N3CCC(F)(C(N)=O)CC3)cc2CS1(=O)=O` [Example 31, 5′-Chloro-4-fluoro-3′-(1-methyl-2,2-dioxo-2,3-dihydro-1H-2l6-benzo[c]isothiazol-5-yl)-3,4,5,6-tetrahydro-2H-[1,4′]bipyridinyl-4-carboxylic acid amide]?
IC50 [1]: 2.8 nM; microsomal CLint at 0.8 μM [2]: 51 µL/min/mg

Which IC50 [1] does the source give for `COCC1(C(N)=O)CCN(c2c(Cl)cncc2-c2ccc3c(c2)CS(=O)(=O)N3C)CC1` [Example 77, 5′-Chloro-4-methoxymethyl-3′-(1-methyl-2,2-dioxo-2,3-dihydro-1H-2l6-benzo[c]isothiazol-5-yl)-3,4,5,6-tetrahydro-2H-[1,4′]bipyridinyl-4-carboxylic acid amide] here?
Its IC50 is 0.43 nM.

And the microsomal CLint at 0.8 μM [2]?
The microsomal CLint at 0.8 μM was 75 µL/min/mg.

Which IC50 [1] does the source give for `CN1c2ccc(-c3cncc(Cl)c3N3CCC4(CC3)NC(=O)CNC4=O)cc2CS1(=O)=O` [Example 21, 9-[3-Chloro-5-(1-methyl-2,2-dioxo-2,3-dihydro-1H-2l6-benzo[c]isothiazol-5-yl)-pyridin-4-yl]-1,4,9-triaza-spiro[5.5]undecane-2,5-dione] here?
Its IC50 is 31 nM.

And the microsomal CLint at 0.8 μM [2]?
The microsomal CLint at 0.8 μM was less than 10 µL/min/mg.

With `CCC1=NNC(=O)C12CCN(c1c(Cl)cncc1-c1ccc3c(c1)CS(=O)(=O)N3C)CC2` [Example 52, 8-[3-Chloro-5-(1-methyl-2,2-dioxo-2,3-dihydro-1H-2l6-benzo[c]isothiazol-5-yl)-pyridin-4-yl]-4-ethyl-2,3,8-triaza-spiro[4.5]dec-3-en-1-one] as the compound, how does the IC50 [1] read?
The IC50 was 0.02 nM.

What about the microsomal CLint at 0.8 μM [2] of the same compound?
The microsomal CLint at 0.8 μM was 70 µL/min/mg.

With `Cn1ncc2cc(-c3cncc(Cl)c3N3CCC4(CC3)CNC(=O)O4)ccc21` [Example 4, 8-[3-Chloro-5-(1-methyl-1H-indazol-5-yl)-pyridin-4-yl]-1-oxa-3,8-diaza-spiro[4.5]decan-2-one] as the compound, how does the IC50 [1] read?
The IC50 was 10 nM.

What about the microsomal CLint at 0.8 μM [2] of the same compound?
Its microsomal CLint at 0.8 μM is 23 µL/min/mg.

Which results are given for `COC(=O)Nc1n[nH]c2cc(-c3cncc(Cl)c3N3CCC4(CCNC4=O)CC3)ccc12` [Example 23, {6-[5-Chloro-4-(1-oxo-2,8-diaza-spiro[4.5]dec-8-yl)-pyridin-3-yl]-1H-indazol-3-yl}-carbamic acid methyl ester]?
IC50 [1]: 39 nM; microsomal CLint at 0.8 μM [2]: 49 µL/min/mg

What does the source list for `CN1c2ccc(-c3cncc(F)c3N3CCC4(CCNC4=O)CC3)cc2CS1(=O)=O` [Example 76, 8-[3-Fluoro-5-(1-methyl-2,2-dioxo-2,3-dihydro-1H-2l6-benzo[c]isothiazol-5-yl)-pyridin-4-yl]-2,8-diaza-spiro[4.5]decan-1-one]?
IC50 [1]: 9.1 nM; Human Clint [2]: 36 µL/min/mg

Which IC50 [1] does the source give for `Cn1cc(-c2ccc(-c3cncc(Cl)c3N3CCC4(CC3)NC(=O)CNC4=O)cc2)cn1` [Example 17, 9-{3-Chloro-5-[4-(1-methyl-1H-pyrazol-4-yl)-phenyl]-pyridin-4-yl}-1,4,9-triaza-spiro[5.5]undecane-2,5-dione] here?
Its IC50 is 11 nM.

And the “Human Clint” value [2]?
Its value is 11 µL/min/mg.

With `Cn1cc(-c2ccc(-c3cncc(Cl)c3N3CCC4(CC3)C(=O)Nc3cccnc34)cc2)cn1` [Example 68] as the compound, how does the IC50 [1] read?
Its IC50 is 1.4 nM.

And the microsomal CLint at 0.8 μM [2]?
Its microsomal CLint at 0.8 μM is 65 µL/min/mg.

With `Cn1cc(-c2ccc(-c3cncc(Cl)c3N3CCC4(CC3)NCNC4=O)cc2)cn1` [Example 88, 8-{3-Chloro-5-[4-(1-methyl-1H-pyrazol-4-yl)-phenyl]-pyridin-4-yl}-1,3,8-triaza-spiro[4.5]decan-4-one] as the compound, how does the IC50 [1] read?
The IC50 was 3.2 nM.

And the microsomal CLint at 0.8 μM [2]?
The microsomal CLint at 0.8 μM was less than 10 µL/min/mg.

Which IC50 [1] does the source give for `O=C1NCC2(CCN(c3c(Cl)cncc3-c3ccc4oc(=O)[nH]c4c3)CC2)O1` [Example 8, 8-[3-Chloro-5-(2-oxo-2,3-dihydro-benzooxazol-5-yl)-pyridin-4-yl]-1-oxa-3,8-diaza-spiro[4.5]decan-2-one] here?
The IC50 was 9.7 nM.

What about the microsomal CLint at 0.8 μM [2] of the same compound?
The microsomal CLint at 0.8 μM was 16 µL/min/mg.

For `CC1NC(=O)OC12CCN(c1c(Cl)cncc1-c1ccc(-c3cnn(C)c3)cc1)CC2` (racemic) [Example 97, 8-{3-Chloro-5-[4-(1-methyl-1H-pyrazol-4-yl)-phenyl]-pyridin-4-yl}-4-methyl-1-oxa-3,8-diaza-spiro[4.5]decan-2-one], which IC50 [1] is on record?
Its IC50 is 42 nM.

What about the microsomal CLint at 0.8 μM [2] of the same compound?
Its microsomal CLint at 0.8 μM is 26 µL/min/mg.

Which IC50 [1] does the source give for `Cn1ncc2cc(-c3cncc(Cl)c3N3CCC4(CC3)C(=O)NN=C4C(F)(F)F)ccc21` [Example 61, 8-[3-Chloro-5-(1-methyl-1H-indazol-5-yl)-pyridin-4-yl]-4-trifluoromethyl-2,3,8-triaza-spiro[4.5]dec-3-en-1-one] here?
Its IC50 is 17 nM.

And the microsomal CLint at 0.8 μM [2]?
The microsomal CLint at 0.8 μM was 38 µL/min/mg.

For `Cn1nc(N)c2ccc(-c3cncc(Cl)c3N3CCC4(CC3)CNC(=O)O4)cc21` [Example 27, 8-[3-(3-Amino-1-methyl-1H-indazol-6-yl)-5-chloro-pyridin-4-yl]-1-oxa-3,8-diaza-spiro[4.5]decan-2-one], which IC50 [1] is on record?
Its IC50 is 2 nM.

What about the microsomal CLint at 0.8 μM [2] of the same compound?
Its microsomal CLint at 0.8 μM is 58 µL/min/mg.

From US9926319B2, “Pyridyl piperidines” (MERCK PATENT GMBH, priority 2014, dated 2018)
